# Source: PubChem BioAssay (NCI)
#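 A five-concentration, 48-hour dose response in 96-well plates underlies each endpoint, interpolated linearly between surrounding concentrations. GI50: concentration for 50% inhibition of growth. TGI is the concentration that stops growth completely.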
# Experiments:
# Assay in all cases: inhibition of tumour cell growth, NCI panel, 48 h
# [1] = system: SR leukemia
# [2] = system: NCI-H460 lung
# [3] = system: SN12C renal
# [4] = system: KM12 colon
# [5] = system: CCRF-CEM leukemia
# [6] = system: SW-620 colon
# [7] = system: A549 NSCLC
# [8] = system: HCT-15 colon
# [9] = system: SNB-75 CNS
# [10] = system: SF-295 CNS
# [11] = system: A498 renal
# [12] = system: UACC-62 melanoma
# [13] = system: SK-MEL-2 melanoma
# [14] = system: IGROV1 ovarian
# [15] = system: TK-10 renal
# [16] = system: HCC-2998 colon
# [17] = system: NCI/ADR-RES ovarian
# [18] = system: SK-OV-3 ovarian
# [19] = system: NCI-H522 lung
# [20] = system: HS 578T breast
# [21] = system: SK-MEL-28 melanoma
# [22] = system: DU-145 prostate
# [23] = system: SK-MEL-5 melanoma
# [24] = system: HOP-92 NSCLC
# [25] = system: MCF7 breast
# [26] = system: SF-539 CNS
# [27] = system: HT29 colon
# [28] = system: SF-268 CNS
# [29] = system: T-47D breast
# [30] = system: UACC-257 melanoma
# [31] = system: HOP-62 NSCLC
# [32] = system: RXF 393 renal
# [33] = system: OVCAR-4 ovarian
# [34] = system: ACHN renal
# [35] = system: UO-31 renal
# [36] = system: OVCAR-5 ovarian
# [37] = system: SNB-19 CNS
# [38] = system: MDA-MB-435
# [39] = system: PC-3 prostate
# [40] = system: CAKI-1 renal
# [41] = system: OVCAR-8 ovarian
# [42] = system: MALME-3M melanoma
# [43] = system: EKVX NSCLC
# [44] = system: HL-60(TB) leukemia
# [45] = system: K-562 leukemia
# [46] = system: MDA-MB-231 breast
# [47] = system: 786-0 renal
# [48] = system: MOLT-4 leukemia
# [49] = system: RPMI-8226 leukemia
# [50] = system: COLO 205 colon
# [51] = system: U251 CNS
# [52] = system: M14 melanoma
# [53] = system: NCI-H23 lung
# [54] = system: HCT-116 colon
# [55] = system: NCI-H226 lung
# [56] = system: LOX IMVI melanoma
# [57] = system: OVCAR-3 ovarian
# [58] = system: BT-549 breast
smiles,measurement,setting,value
N#Cc1cccc(NC(=O)c2cc(-c3ccc(F)cc3F)ccc2O)c1,GI50,[1],2910 nM
same,TGI,[1],23.2 µM
same,GI50,[2],1420 nM
same,TGI,[2],13.3 µM
same,GI50,[3],1440 nM
same,TGI,[3],6.46 µM
same,GI50,[4],2720 nM
same,TGI,[4],8.24 µM
same,GI50,[5],3250 nM
same,TGI,[5],19.3 µM
same,GI50,[6],2990 nM
same,TGI,[6],17.1 µM
same,GI50,[7],3520 nM
same,TGI,[7],> 100 µM
same,GI50,[8],1900 nM
same,TGI,[8],6.93 µM
same,GI50,[9],1290 nM
same,TGI,[9],3.88 µM
same,GI50,[10],1960 nM
same,TGI,[10],4.44 µM
same,GI50,[11],374 nM
same,TGI,[11],2.12 µM
same,GI50,[12],522 nM
same,TGI,[12],2.7 µM
same,GI50,[13],0.768 µM
same,TGI,[13],3.85 µM
same,GI50,[14],2600 nM
same,TGI,[14],> 100 µM
same,GI50,[15],3.49 µM
same,TGI,[15],15.7 µM
same,GI50,[16],3220 nM
same,TGI,[16],12.4 µM
same,GI50,[17],2110 nM
same,TGI,[17],9.92 µM
same,GI50,[18],2350 nM
same,TGI,[18],8.88 µM
same,GI50,[19],642 nM
same,TGI,[19],10.9 µM
same,GI50,[20],2020 nM
same,TGI,[20],7.21 µM
same,GI50,[21],1.38 µM
same,GI50,[22],2630 nM
same,TGI,[22],> 100 µM
same,GI50,[23],507 nM
same,TGI,[23],1.94 µM
same,GI50,[24],338 nM
same,TGI,[24],1.93 µM
same,GI50,[25],1870 nM
same,TGI,[25],10.7 µM
same,GI50,[26],2540 nM
same,GI50,[27],5.71 µM
same,TGI,[27],> 100 µM
same,GI50,[28],2380 nM
same,TGI,[28],20.7 µM
same,GI50,[29],496 nM
same,TGI,[29],6.57 µM
same,GI50,[30],0.893 µM
same,TGI,[30],5.32 µM
same,GI50,[31],2390 nM
same,TGI,[31],7.96 µM
same,GI50,[32],2250 nM
same,TGI,[32],6.6 µM
same,GI50,[33],899 nM
same,TGI,[33],14.2 µM
same,GI50,[34],2650 nM
same,TGI,[34],10.1 µM
same,GI50,[35],1820 nM
same,TGI,[35],9.03 µM
same,GI50,[36],3.39 µM
same,TGI,[36],30.2 µM
same,GI50,[37],2370 nM
same,TGI,[37],14.3 µM
same,GI50,[38],1370 nM
same,TGI,[38],6.32 µM
same,GI50,[39],2890 nM
same,TGI,[39],17.9 µM
same,GI50,[40],1310 nM
same,TGI,[40],4.74 µM
same,GI50,[41],2.88 µM
same,TGI,[41],> 100 µM
same,GI50,[42],1010 nM
same,TGI,[42],4 µM
same,GI50,[43],2.68 µM
same,TGI,[43],9.32 µM
same,GI50,[44],1800 nM
same,TGI,[44],5.27 µM
same,GI50,[45],1510 nM
same,TGI,[45],> 100 µM
same,GI50,[46],2120 nM
same,TGI,[46],5.93 µM
same,GI50,[47],3060 nM
same,TGI,[47],10.7 µM
same,GI50,[48],2.55 µM
same,TGI,[48],8.6 µM
same,GI50,[49],562 nM
same,TGI,[49],3.17 µM
same,GI50,[50],11.5 µM
same,TGI,[50],25.1 µM
same,GI50,[51],2560 nM
same,TGI,[51],25.5 µM
same,GI50,[52],2250 nM
same,TGI,[52],8.89 µM
same,GI50,[53],1490 nM
same,TGI,[53],6.23 µM
same,GI50,[54],1890 nM
same,TGI,[54],8.91 µM
same,GI50,[55],1860 nM
same,TGI,[55],7.36 µM
CCCn1cnc2c(c1=N)C(c1ccc(F)cc1)c1sc3c(C)cccc3c1O2 (centres undefined),GI50,[1],648 nM
same,TGI,[1],15.6 µM
same,GI50,[2],1050 nM
same,TGI,[2],11.5 µM
same,GI50,[3],2940 nM
same,TGI,[3],14.9 µM
same,GI50,[4],1630 nM
same,TGI,[4],> 36.3 µM
same,GI50,[5],1030 nM
same,TGI,[5],> 43.8 µM
same,GI50,[6],1320 nM
same,TGI,[6],18.8 µM
same,GI50,[7],2150 nM
same,TGI,[7],> 48.8 µM
same,GI50,[8],1050 nM
same,TGI,[8],12.7 µM
same,GI50,[9],321 nM
same,TGI,[9],13.8 µM
same,GI50,[10],581 nM
same,TGI,[10],11 µM
same,GI50,[11],584 nM
same,TGI,[11],3.95 µM
same,GI50,[12],443 nM
same,TGI,[12],13.8 µM
same,GI50,[13],5.41 µM
same,TGI,[13],30.1 µM
same,GI50,[14],1230 nM
same,TGI,[14],13.1 µM
same,GI50,[15],16.1 µM
same,TGI,[15],61.5 µM
same,GI50,[16],2010 nM
same,TGI,[16],6.08 µM
same,GI50,[17],425 nM
same,TGI,[17],6.99 µM
same,GI50,[18],2230 nM
same,TGI,[18],38.8 µM
same,GI50,[19],400 nM
same,TGI,[19],12.1 µM
same,GI50,[20],961 nM
same,TGI,[20],14.3 µM
same,GI50,[56],962 nM
same,TGI,[56],13.2 µM
same,GI50,[21],5.79 µM
same,TGI,[21],22.7 µM
same,GI50,[22],3340 nM
same,TGI,[22],29.5 µM
same,GI50,[23],1250 nM
same,TGI,[23],11.9 µM
same,GI50,[24],458 nM
same,TGI,[24],7.5 µM
same,GI50,[25],351 nM
same,TGI,[25],13.8 µM
same,GI50,[26],1160 nM
same,TGI,[26],5.07 µM
same,GI50,[27],3.16 µM
same,TGI,[27],12.8 µM
same,GI50,[28],2710 nM
same,TGI,[28],21.9 µM
same,GI50,[29],1970 nM
same,TGI,[29],41.9 µM
same,GI50,[30],15.6 µM
same,TGI,[30],39.5 µM
same,GI50,[31],2080 nM
same,TGI,[31],31.1 µM
same,GI50,[32],227 nM
same,TGI,[32],0.741 µM
same,GI50,[33],2790 nM
same,TGI,[33],> 42.5 µM
same,GI50,[34],1450 nM
same,TGI,[34],16.1 µM
same,GI50,[35],662 nM
same,TGI,[35],15.1 µM
same,GI50,[36],3.66 µM
same,TGI,[36],18.4 µM
same,GI50,[37],2400 nM
same,TGI,[37],18.4 µM
same,GI50,[38],328 nM
same,TGI,[38],1.27 µM
same,GI50,[39],638 nM
same,TGI,[39],15.2 µM
same,GI50,[40],546 nM
same,TGI,[40],> 39.5 µM
same,GI50,[41],3.79 µM
same,TGI,[41],31 µM
same,GI50,[42],2660 nM
same,TGI,[42],24.2 µM
same,GI50,[43],3.7 µM
same,TGI,[43],27.6 µM
same,GI50,[44],1480 nM
same,TGI,[44],7.87 µM
same,GI50,[45],358 nM
same,TGI,[45],22.6 µM
same,GI50,[57],815 nM
same,TGI,[57],10.6 µM
same,GI50,[46],3090 nM
same,TGI,[46],15.7 µM
same,GI50,[47],1080 nM
same,TGI,[47],14.5 µM
same,GI50,[48],3.48 µM
same,TGI,[48],> 54.2 µM
same,GI50,[49],961 nM
same,TGI,[49],7.91 µM
same,GI50,[50],2.6 µM
same,TGI,[50],8.22 µM
same,GI50,[51],2070 nM
same,TGI,[51],18.1 µM
same,GI50,[52],637 nM
same,TGI,[52],11.3 µM
same,GI50,[53],1620 nM
same,TGI,[53],10.9 µM
same,GI50,[54],467 nM
same,TGI,[54],11.8 µM
same,GI50,[55],2870 nM
same,TGI,[55],15.1 µM
same,GI50,[58],5.84 µM
same,TGI,[58],22.8 µM
